The results in this text go back to US20080305534A1, “Novel Glycerol Dehydrogenase, Gene Therefor, and Method of Utilizing the Same” (priority 2004, published 2008).

First the molecules themselves.
B1: RCG: glycerol dehydrogenase derived from Cellulomonas sp. strain KNK0102, amino acid sequence SEQ ID NO: 1 (protein, listed as Cellulomonas sp.)
chain: MSEVPVRTLISPLRYVQARGALTRLGEFVRPIGTKPLLVADDVVWGIVQDTVAVSFQEQDLPRHRTGFGTYATAAEVDRLAREIDELGADVIVGIGGGSTIDAVKAAGHLRGIRWVSVPTVASTDAPCSALSVIYTEDGAFEEYRFFPHNPDLVLVDTGLVANAPVKFLVAGVGDALATWIEARAVAEANASTMAGGLPLVTGTALAQLSWDILWENALPAIDAVKNHLVTPAVEKVVEANTLLSGLGFESGGLAAAHAIHNGLTAAPQTHGLTHGQKVNIGSVTQLVLEGAPTEEIEEFVRFTTRVGLPNTLTEIGLTADDVHDLTRVAEAATAEGETIHAMPFPVRVPELVDALRSIEGFSRRVRAEAGLPEPVKHTAH

The first data set relates to RCG. As to the kind of experiment: Substrate specificity of RCG (oxidation activity with NAD+). The format is biochemical, Cellulomonas sp. strain KNK0102. Particulars: pH 8. On the procedure:
Oxidation activity was determined by adding 2 mM of coenzyme NAD^+, 10 mM of a compound shown in Table 2, and the enzyme solution to a 100 mM phosphate buffer (pH 8.0) to react at 30° C. for 3 min. followed by the measurement of an increase in absorbance at the wavelength of […]. In Table 2, relative activities are summarized, wherein the activity for glycerol is 100.
Turning to `OCCCCO` [1,4-butanediol], the Relative activity is given as 1%.
On to `OCCO` [ethylene glycol], for which the Relative activity is 8%.

Staying with this data set, now noted: substrate 10 mM, 2 mM NAD+, 100 mM phosphate buffer pH 8.0, 30° C., 3 min; activity for glycerol is 100.
Consider 1-amino-2-propanol, for which the Relative activity was found to be 12%.
Consider 2-butanol, for which the Relative activity stood at 0%.
On the same count and under the same terms, in the case of `OCCC(O)CO` (stereo not shown) [1,2,4-butanetriol] it was 21%.
The same measure, in the same setting: to `CCC(O)CO` (stereo not shown) [1,2-butanediol] belongs 129%; to `CCCCC(O)CO` (stereo not shown) [1,2-hexanediol], 26%; to `CCCC(O)CO` (stereo not shown) [1,2-pentanediol], 153%.
For the molecule `CC(O)CO` (stereo not shown) [1,2-propanediol], the Relative activity is on record as 142%.
Same read-out and setting: in the case of `CC(O)CCO` (stereo not shown) [1,3-butanediol] it was 3%; in that of `OC(CCl)CCl` [1,3-dichloro-2-propanol], 0%; in that of `OCCCO` [1,3-propanediol], 1%.
Take `CC(O)CCCO` (stereo not shown) [1,4-pentanediol]: the Relative activity stood at 0%.
Same read-out and setting: in the case of `CC(O)C(C)O` (stereo not shown) [2,3-butanediol] it was 64%; in that of `OCC(O)CBr` (stereo not shown) [3-bromo-1,2-propanediol], 58%; in that of `OCC(O)CCl` (stereo not shown) [3-chloro-1,2-propanediol], 63%.
On to `OCC(O)CS` (stereo not shown) [3-mercapto-1,2-propanediol], for which the Relative activity amounted to 129%.
Still for that read-out and setting: in the case of `COCC(O)CO` (stereo not shown) [3-methoxy-1,2-propanediol] it was 39%; in that of `CSCC(O)CO` (stereo not shown) [3-methylthio-1,2-propanediol], 120%; in that of `OCC(O)COc1ccccc1` (stereo not shown) [3-phenoxy-1,2-propanediol], 9%.
On the same count and under the same terms, in the case of `CCO` [ethanol] it was 0%; in that of `OCC(O)CO` [glycerol], 100%; in that of `CC(C)O` [isopropanol], 0%.
Still for that read-out and setting: to `CO` [methanol] belongs 0%.
For `CCCO` [propanol], the Relative activity turned out to be 0%.
Turning to butanol, the Relative activity came to 0%.

Test system in a further data set: not listed separately
As to the kind of experiment: Action of RCG: stereoselective reduction of 1-chloro-3-hydroxyacetone. Format: biochemical. As to conditions: reduction of 1-chloro-3-hydroxyacetone using NADH as a coenzyme. On the procedure: Furthermore, optical purity of the resulting 3-chloro-1,2-propanediol was determined by high performance liquid chromatography after tosylation.
Take B1: the “optical purity of (S)-3-chloro-1,2-propanediol formed” value is 99.3 % e.e.

Test system in another data set: not listed separately
As to the kind of experiment: Optimum pH of RCG for reduction (activity to reduce dihydroxyacetone). The format is biochemical. As to conditions: 10 mM dihydroxyacetone, 0.167 mM NADH, 30° C., pH 4 to pH 9. On the procedure:
In order to study the optimum pH of RCG for reduction, the activity to reduce dihydroxyacetone at pH 4 to pH 9 was determined. The enzyme activity was determined by adding 10 mM of the substrate dihydroxyacetone, 0.167 mM of coenzyme NADH, 50 mM of KCl, 50 mM of NH4Cl, and the enzyme solution to a buffer to react at 30° C. for 3 min. followed by the measurement of a decrease in absorbance at […]. As buffers, 100 mM acetic acid buffers (pH4.0 to pH 6.0), 100 mM phosphate buffers (pH 6.0 to pH 8.0), and 100 mM Tris-HCl buffers (pH 8.0 to 9.0) were used to measure the activity at pH 4 to pH 9.
For the molecule B1, the “optimum pH for reduction” value amounted to 6.0.

Test system in the next data set: not listed separately
The data set can be described thus: Optimum pH of RCG for oxidation (activity to oxidize glycerol). Format: biochemical. As to conditions: 0.1 M glycerol, 2 mM NAD+, 30° C., pH 6 to pH 11. On the procedure:
In order to study the optimum pH of RCG for oxidation, the activity to oxidize glycerol at pH6 to pH 11 was determined. The enzyme activity was determined by adding 0.1 M of the substrate glycerol, 2 mM of coenzyme NAD^+, 50 mM of KCl, 50 mM of NH4Cl, and the enzyme solution to a buffer to react at 30° C. for 3 min. followed by the measurement of an increase in absorbance at […]. As buffers, 100 mM phosphate buffers (pH 6.0 to pH 8.0), 100 mM Tris-HCl buffers (pH 8.0 to 9.0), and 100 mM carbonic acid buffers (pH 9.0 to pH 11.0) were used to measure the activity at pH 6 to pH 11.
For the molecule B1, the “optimum pH for oxidation” value amounted to 9.0.

Test system in another data set: not given
Test: not given
The format is biochemical.
Conditions: not given
On the procedure:
Herein, the expression “having resistance to 1-chloro-3-hydroxyacetone” means that when 1-chloro-3-hydroxyacetone is added to a solution containing the polypeptide (the enzyme) of the present invention at the final concentration of 0.25% and the mixture is incubated at 30° C. for 20 hrs. followed by the determination of the activity to reduce 1-chloro-3-hydroxyacetone under the conditions described above, the resulting activity is 80% or more, preferably 85% or more, more preferably 90% or more of the activity determined without the pretreatment.
Likewise, the expression “having resistance to 3-chloro-1,2-propanediol” means that when the activity to reduce 1-chloro-3-hydroxyacetone is determined after incubation at 30° C. for 20 hrs. in the presence of 1% of 3-chloro-1,2-propanediol, the resulting activity is 80% or more, preferably 90% or more, more preferably 95% or more of the activity determined without the pretreatment.
In order to study the stability of RCG to 1-chloro-3-hydroxyacetone and to 3-chloro-1,2-propanediol, 1-chloro-3-hydroxyacetone was added at the final concentration of 0.25% to the enzyme solution and incubated at 30° C. followed by the measurement of the activity to reduce 1-chloro-3-hydroxyacetone by using the above enzyme solution. […]
For the molecule B1, the “stability to 1-chloro-3-hydroxyacetone” value is on record as “very stable” and the “stability to 3-chloro-1,2-propanediol” value is “very stable”.
